Test results from US11484562B2, “Composition for preventing or treating obesity comprising natural mixture extracts” (KOREA INSTITUTE OF ORIENTAL MEDICINE, priority 2018, dated 2022).

How the values were obtained:
[1] = people taking Reductil, background statement; cited from earlier work
pancreatic lipase = target: T1, pancreatic lipase (Homo sapiens, UniProt P16233); settings: background statement; cited from earlier work
T1 sequence (P16233 17-465): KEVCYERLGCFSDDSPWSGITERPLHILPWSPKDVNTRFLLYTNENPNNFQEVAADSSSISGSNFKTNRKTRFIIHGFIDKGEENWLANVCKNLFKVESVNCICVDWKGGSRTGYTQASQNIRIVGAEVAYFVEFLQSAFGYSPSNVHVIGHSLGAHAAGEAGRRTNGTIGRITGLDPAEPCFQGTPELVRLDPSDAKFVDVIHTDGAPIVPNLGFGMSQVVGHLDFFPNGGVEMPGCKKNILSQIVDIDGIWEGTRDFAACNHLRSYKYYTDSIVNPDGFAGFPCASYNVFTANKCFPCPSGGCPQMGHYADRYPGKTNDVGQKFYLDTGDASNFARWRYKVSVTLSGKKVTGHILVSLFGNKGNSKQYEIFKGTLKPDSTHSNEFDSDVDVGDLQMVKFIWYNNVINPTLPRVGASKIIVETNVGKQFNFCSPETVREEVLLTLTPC

high-fat diet-fed mice = assay: Anti-obesity effect by repeated administration for 8 weeks in obesity model induced by high-fat diet; format: in vivo, C57BL/6 mice; settings: HFD mice
Procedure: 6-week-old male C57BL/6 mice (Orient Bio) were used after being acclimated for one week. A high-fat diet was fed to induce obesity. D12451 (Calorie composition: 45% of fats, 35% of carbohydrates, and 20% of proteins, Research Diets, Inc.) was used as the high-fat diet, and Purina Rodent Chow was used as a normal diet. The mice were allowed to freely access feed and drinking water. The CMO1 mixture was administered together with the […] feed at a weight ratio of 0.1% (w/w) and 0.25% (w/w). Xenical™ (orlistat, Sigma, MO, USA), as a control drug, was administered together with the […] feed in a weight ratio of 0.1% (w/w). A daily dose of the CMO1 mixture, calculated based on an average daily feed intake, was 70 mg/kg/day in the case of 0.1%, and 190 mg/kg/day in the case of 0.25%, and a daily dose of Xenical™ was […]. Body weights and feed intakes were measured every week, and organs were excised and weighed in autopsy after 8 weeks and then stored at −80° C. In autopsy, blood was collected from the abdominal vein after laparotomy under deep anesthesia. The blood was stored in a cryogenic refrigerator according to analysis conditions and thawed immediately before initiating the experiment. Levels of total cholesterol, triglyceride, HDL cholesterol, and LDL cholesterol were analyzed using an automatic blood biochemistry analyzer (Hitachi, Japan). In order to analyze size changes in adipocytes and hepatocytes caused by accumulation of fats, the organ was immobilized with 10% neutralized formalin (Microme, USA) for 24 hours, embedded into paraffin blocks via a general tissue treatment process, and sectioned into 4 μm slices. The slices were hydrated and stained with hematoxylin and eosin (H&E). The stained tissue was observed using an optical microscope (BX51, Olympus, Japan) to measure sizes of cells. […] All measurement values of each experiment are expressed as mean±standard error. […]

[2] = during 8-week administration in feed

Compound | higher number of cardiovascular events versus a control group [1] [%] | inhibition of absorption of dietary fat (pancreatic lipase) | hardness of excrement (high-fat diet-fed mice; 8-week administration in feed) | appearance of hair during administration (high-fat diet-fed mice; [2]) | diarrhea (side effect) (high-fat diet-fed mice; [2])
CC(C)CC(N(C)C)C1(c2ccc(Cl)cc2)CCC1 (centres unmarked) [Reductil, Sibutramine] | 16 | – | – | – | –
CCCCCCCCCCC[C@@H](C[C@@H]1OC(=O)[C@H]1CCCCCC)OC(=O)[C@H](CC(C)C)NC=O [Xenical, Orlistat] | – | approximately 30% | very soft excrement | oily and lumpy hair | serious diarrhea
